The results in this text go back to patent US8735443B2, “Method of treating diabetes-related vascular complications” (Kuwait University, priority 2008, dated 2014).

One experiment deals with NAD(P)H oxidase. Nature of the experiment: NAD(P)H oxidase activity in aortic homogenates (lucigenin photoemission). In kind it is biochemical, rat. The settings on record: GK rats after LA therapy.
Experiment [1] has as its system thiobarbituric acid reactive substances. As to the kind of experiment: Aortic content of TBARS (lipid peroxidation). The experiment is classed as in vivo, rat. As to conditions: aorta of LA-treated GK rats. On the procedure:
With regard to lipid peroxidation, aortic tissues were homogenized in ice-cold tris-hydrochloric acid/buffer (pH 7.4) and butylated hydroxytoluene (BHT). Homogenates were centrifuged at 3,000×g at 4° C. for 10 min. An aliquot of the supernatant was combined with N-methyl-2-phenylindol (10.3) mmol/l in acetonitrile and methanol in the presence of methane sulfonic acid and BHT and the amount of malondialdehyde and 4-hydroxy-2-nonenal was assessed.

The next experiment concerns aortic tissues. Nature of the experiment: Apoptotic cell death ELISA, cytoplasmic histone-associated DNA fragments in aorta. The experiment is classed as in vivo, rat. On the procedure:
With regard to the assessment of apoptotic cell death using enzyme-linked immuno-absorbent-based assay, aortic tissues derived from control, GK and LA-treated GK rats were lysed and cytoplasmic histone-associated DNA fragments, indicating apoptotic cell death were determined by the Cell Death ELISA® plus kit. Data are reported as arbitrary optical density units normalized to protein concentration.

Another experiment deals with ICAM-1. As to the kind of experiment: Aortic mRNA expression by QRT-PCR, ICAM-1. The settings on record: GK rats, LA therapy. In kind it is in vivo, rat. How it is done:
An expression of a number of inflammatory markers, including IL-6 and ICAM-1, were measured in control, diabetic and LA-treated diabetic vessels. The results confirmed marked elevation in the vascular expression of both […] and ICAM-1 during diabetes, as shown in FIGS. 11A and 11B. […] Aortic expression of IL-6 is shown in FIG. 11A and aortic expression of intracellular adhesion molecule (ICAM-1) is shown in FIG. 11B. Both were determined using QRT-PCR based techniques.

Experiment [2] relates to diabetic fibroblasts (DFs). Nature of the experiment: Cell viability after hydrogen peroxide (Cell Counting Kit-8), diabetic fibroblasts. In kind it is cell-based, rat. The settings on record: diabetic fibroblasts, lipoic acid 500 μM, Nrf2-dependent. From the text:
(§1) To determine the effect of α-lipoic acid on isolated cells from normal and diabetic rats, primary rat fibroblasts were derived from dorsal skin biopsies performed on four diabetic Coto Kakizaki rats (DFs) and four age-matched (12-14 months) and sex-matched (female) Wistar control rats (CFs). After sterilization in povidine solution, the rat skin was washed in sterile water and rinsed in 70% ethanol in phosphate-buffered saline (PBS). The epidermis and dermis were separated following overnight incubation in 0.25% Trypsin/EDTA at 4° C. Samples were washed, diced and digested for thirty minutes at 37° C. in collagenase type I (250 U/ml) dissolved in Dulbecco's modified Eagle medium (DMEM; Invitrogen) containing penicillin (100 U/ml), 2 mM L-glutamine and 26 mM HEPES. After collagenase treatment, the cells were dislodged, centrifuged and resuspended in medium supplemented with 10% fetal bovine serum. The cells were grown under standard conditions, and the medium was changed every three to four days. Control and diabetic fibroblasts were grown under normo-glycemic conditions (5.5 mM glucose) and used in experiments at passage 3 to 5.
Fibroblasts were seeded at 1×10^4 cells/well on a 96-well plate. After a 24 hour incubation period, the cells were exposed to various concentrations of HP in serum-free medium at 37° C. for 2 hours [lactate dehydrogenase (LDH), a marker for necrotic cell death], or for 16 hours (cell viability). Quantification of cell viability was assessed using a Cell Counting Kit-8 (Dojindo, Kumamoto, Japan). The values obtained were normalized to the vehicle-treated cells. To measure the rate of necrotic cell death, an LDH release assay was performed using a CytoTox-ONE Homogeneous Membrane Integrity Assay kit (Promega). Expression of Nrf2 was inhibited by small-interfering RNA (siRNA) oligonucleotides. The sequences were designed and synthesized by Qiagen. The best silencing efficiency was obtained by incubating 2.0×10^5 cells/well in a 6-well plate with complexes formed by 5 nM siRNA (1 μl) and 9 μL of HiPerfect transfection reagent (Qiagen) dissolved in 90 μl medium, according to the manufacturer's instructions. The transfection was achieved by adding 0.9 ml of medium to the seeded cells followed by 100 μl of siRNA/HiPerfect complex. Knock-out efficiency was verified by real-time PCR and Western blot. Twenty-four hours later, 1 ml of fresh medium was added; 48 hr after transfection the cells were exposed to either vehicle or lipoic acid at a concentration of 500 μM.

Experiment [3] deals with control fibroblasts (CFs). Nature of the experiment: Cell viability after hydrogen peroxide (Cell Counting Kit-8), control fibroblasts. The experiment is classed as cell-based, rat. As to conditions: lipoic acid 500 μM, Nrf2-dependent.
Text: as §1
(§2) Fibroblasts were seeded at 1×10^4 cells/well on a 96-well plate. […] Quantification of cell viability was assessed using a Cell Counting Kit-8 (Dojindo, Kumamoto, Japan). […]

Experiment [4] has as its system diabetic fibroblasts (DFs). Nature of the experiment: LDH release assay (necrotic cell death) in fibroblasts. The experiment is classed as cell-based, rat. As to conditions: lipoic acid 500 μM, Nrf2-dependent.
Text: as §1, §2
(Release of lactate dehydrogenase indicates damage to the cell membrane.)

The subject of the next experiment is diabetic fibroblasts. Nature of the experiment: Inflammatory cytokine release by fibroblasts, ELISA. The experiment is classed as cell-based, rat. The settings on record: lipoic acid 500 μM, Nrf2-dependent.
Text: as §1, with “The cells were grown under standard conditions, and the medium was changed every three to four days. Control and diabetic fibroblasts were grown under normo-glycemic conditions (5.5 mM glucose) and used in experiments at passage 3 to 5.” left out
With regard to ELISA assays to determine cytokine expression levels, control and diabetic fibroblasts were seeded on a 6-well plate at 2.5×10^5 cells/well. […] After incubation for 16 hr, supernatants were collected and analyzed for key inflammatory cytokines, including TNF-α, IL-1β, fractalkine and monocyte chemoattractant protein-1 (MCP-1) using commercially available ELISA kits specific for rats and according to the protocols provided by the manufacturers (R&D and Ray Biotech). […]
On the technique in general: An ELISA detects its analyte on a solid surface through an enzyme-linked reagent.

A further experiment concerns HEK-499 cells. As to the kind of experiment: Viability of cells exposed to cisplatin. As to conditions: 500 microMolar α-lipoic acid in the media prior to cisplatin at variable doses. In kind it is cell-based. From the text:
(§3) Alpha-lipoic acid increased HEK-499 cells, which were engineered to be resistant to chemotherapies and radiotherapies by depleting Raf Kinase inhibitory protein resistance to lethal doses of cisplatin, a chemical used in cancer therapy.

For a further experiment, the system named is NF-κB. Nature of the experiment: NF-κB expression by western blotting, HEK-499. The experiment is classed as cell-based. The settings on record: HEK-499 cells exposed to α-lipoic acid.
Text: as §3
In general terms: In western blotting, separated proteins are transferred to a membrane and probed.

Procedure for NAD(P)H oxidase: Determination of NAD(P)H oxidase activity in the aorta was determined based on superoxide induced lucigenin photoemission. Enzyme assays were carried out in a final volume of 1 ml. containing (in mM) 50 phosphate buffer; pH 7.0, 1 EGTA, 150 sucrose, 0.5 lucigenin, 0.1 NAD(P)H and tissue homogenate. Enzyme reactions were initiated with the addition of lucigenin. Photoemission, expressed in terms of relative light units (RLU), was measured every 5 min. using a luminometer. All assays were carried out in the dark at room temperature.

With `O=C(O)CCCCC1CCSS1` (stereo not drawn) [LA, alpha-lipoic acid], the “NAD(P)H oxidase driven O2− generation in homogenates of diabetic aorta” value with NAD(P)H oxidase is listed as “significantly attenuated”. In addition, the “oxidative stress-mediated damage to lipid (TBARS)” value in experiment [1] is “partially reversed”. In the experiment on aortic tissues (chronic LA treatment, GK rats), the “reduction of DNA fragmentation rate in diabetic arteries” value came to 42%. Moreover, the “LA-mediated antiapoptotic effect after discontinuation” value with aortic tissues (two weeks after discontinuation of therapy) is “markedly reduced”. Further, the “diabetic vascular proinflammatory phenotype, aortic expression of ICAM-1” value with ICAM-1 is “partially reversed”. Further, the “protection of cell viability from hydrogen peroxide” value in [2] and in [3] was “protected” in each case. Besides, in [4], the “LDH release into cell culture media (necrotic cell death) in response to HP” value was “reduces cell death”. Moreover, the “release of inflammatory cytokines by diabetic fibroblasts” value in the experiment with diabetic fibroblasts is “ameliorated”. For the same molecule, the “protection of cells from lethal doses of cisplatin” value with HEK-499 cells is given as “significantly protected”. The NF-κB expression entry in the experiment on NF-κB is on record as “significant increase”.
